We go through 25 molecules from patent publication US11730720B2, “ALK5 inhibitors” (THERAVANCE BIOPHARMA R&D IP, LLC, priority 2018, dated 2023).

For test [1], the target named is T1, recombinant human ALK5 (TGF-βR1) protein (Homo sapiens, UniProt P36897).
T1 construct: purchased Life Technologies PR9075A
T1 sequence (P36897 34-503): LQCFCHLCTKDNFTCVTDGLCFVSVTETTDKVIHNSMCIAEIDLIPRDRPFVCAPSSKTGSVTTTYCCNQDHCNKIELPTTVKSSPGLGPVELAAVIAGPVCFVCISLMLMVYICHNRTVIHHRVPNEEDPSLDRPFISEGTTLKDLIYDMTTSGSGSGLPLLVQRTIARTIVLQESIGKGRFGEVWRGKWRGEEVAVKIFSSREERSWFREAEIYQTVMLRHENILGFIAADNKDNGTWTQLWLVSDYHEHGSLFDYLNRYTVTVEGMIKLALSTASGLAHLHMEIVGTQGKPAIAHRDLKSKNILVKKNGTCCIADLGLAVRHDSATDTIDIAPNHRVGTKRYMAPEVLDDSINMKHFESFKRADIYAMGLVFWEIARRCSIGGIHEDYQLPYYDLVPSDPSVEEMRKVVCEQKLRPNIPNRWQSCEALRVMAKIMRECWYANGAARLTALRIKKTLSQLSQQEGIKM
The test can be described thus: Biochemical ALK5 (TGF-βR1) assay to measure pKi (LANCE Ultra ULight kinase assay). As to conditions: apparent pKi, converted from pIC50 using the Cheng-Prusoff equation. In a few lines: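 TR-FRET kinase format: compound dose range 10 μM–25 pM equilibrated 60 min with human ALK5 and ULight-labelled topoisomerase 2α peptide in HEPES/MgCl2 buffer pH 7.5 with DTT. Reaction started with ATP (125 μM stock, 5× final), 60 min at 37° C, stopped with EDTA/Eu-anti-phospho antibody; pKi derived from pIC50 via Cheng-Prusoff.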

The test system of test [2] is TGF-β-stimulated SMAD3 phosphorylation in BEAS-2B cells. The test can be described thus: Cellular ALK5 potency assay, inhibition of TGF-β stimulated pSMAD3 formation in BEAS-2B cells. In kind it is cell-based. As to conditions: Homo sapiens, inhibition of TGF-β (10 ng/mL) stimulated pSMAD3 formation, 1 hour compound incubation, read-out: BEAS2B pIC50 (converted). In a few lines:
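Phospho-SMAD3 was quantified by AlphaLISA in lysates of human lung epithelial BEAS-2B cells. Compound was added 1 h (37 °C, HEPES/BSA-supplemented HBSS) before a 30 min challenge with 10 ng/mL TGF-β. Values are pIC50 relative to stimulated cells without compound.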

In the case of `Fc1ccc(Cl)cc1-c1[nH]nnc1-c1ccc2ncc(N3CCCNCC3)cc2c1` [Compound 18-7, 6-[5-(5-chloro-2-fluoro-phenyl)-1H-triazol-4-yl]-3-(1,4-diazepan-1-yl)quinoline], in test [1], the Ki is 3.98 to 31.6 nM. Besides, the IC50 in test [2] was 200 to 1260 nM.

In the case of `CNCCn1cc(-c2cnc3ccc(-c4c(-c5cc(Cl)ccc5F)nc5ccccn45)cc3c2)cn1` [Compound 19-1, 2-(4-(6-(2-(5-chloro-2-fluorophenyl)imidazo[1,2-a]pyridin-3-yl)quinolin-3-yl)-1H-pyrazol-1-yl)-N-methylethan-1-amine], in test [1], the Ki was 0.0398 to 0.316 nM. In addition, the IC50 in test [2] is 25.1 to 158 nM.

On to `Fc1ccc(Cl)cc1-c1nc2ccccn2c1-c1ccc2ncc(-c3cnn(C4CCCNC4)c3)cc2c1` (centres unmarked) [Compound 19-2, 6-[2-(5-chloro-2-fluoro-phenyl)imidazo[1,2-a]pyridin-3-yl]-3-[1-(3-piperidyl)pyrazol-4-yl]quinoline], for which, in test [1], the Ki is 0.0398 to 0.316 nM. In addition, the IC50 in test [2] is 200 to 1260 nM.

Turning to `Fc1ccc(Cl)cc1-c1nc2ccccn2c1-c1ccc2ncc(-c3cn[nH]c3)cc2c1` [Compound 19-3, 6-[2-(5-chloro-2-fluoro-phenyl)imidazo[1,2-a]pyridin-3-yl]-3-(1H-pyrazol-4-yl)quinoline], in test [1], the Ki was 0.398 to 3.16 nM. Also, the IC50 in test [2] was 25.1 to 158 nM.

On to `Fc1ccc(Cl)cc1-c1nc2ccccn2c1-c1ccc2ncc(N3CCNCC3)cc2c1` [Compound 19-4, 6-(2-(5-chloro-2-fluorophenyl)imidazo[1,2-a]pyridin-3-yl)-3-(piperazin-1-yl)quinoline], for which, in test [1], the Ki was 0.0398 to 0.316 nM. Moreover, the IC50 in test [2] is 200 to 1260 nM.

Take `CN1CCN(C2CCN(c3cnc4ccc(-c5c(-c6cc(Cl)ccc6F)nc6ccccn56)cc4c3)CC2)CC1` [Compound 19-5, 6-[2-(5-chloro-2-fluoro-phenyl)imidazo[1,2-a]pyridin-3-yl]-3-[4-(4-methylpiperazin-1-yl)-1-piperidyl]quinoline]: the Ki in test [1] is 0.0398 to 0.316 nM. In test [2], the IC50 was 200 to 1260 nM.

As for `CC(C)N1CCN(CCNc2cnc3ccc(-c4c(-c5cc(Cl)ccc5F)nc5ccccn45)cc3c2)CC1` [Compound 19-6, 6-(2-(5-chloro-2-fluorophenyl)imidazo[1,2-a]pyridin-3-yl)-N-(2-(4-isopropylpiperazin-1-yl)ethyl)quinolin-3-amine], in test [1], the Ki is 0.398 to 3.16 nM. The IC50 in test [2] was 200 to 1260 nM.

In the case of `Fc1ccc(Cl)cc1-c1nc2ccccn2c1-c1ccc2ncc(N3CCCNCC3)cc2c1` [Compound 19-8, 6-[2-(5-chloro-2-fluoro-phenyl)imidazo[1,2-a]pyridin-3-yl]-3-(1,4-diazepan-1-yl)quinoline], the Ki in test [1] was 0.398 to 3.16 nM. The IC50 in test [2] was 200 to 1260 nM.

On to `CNCCn1cc(-c2cnc3ccc(-c4c(-c5cc(Cl)ccc5F)nnn4Cc4cccnc4)cc3c2)cn1` [Compound 20-1, 2-(4-(6-(4-(5-chloro-2-fluorophenyl)-1-(pyridin-3-ylmethyl)-1H-1,2,3-triazol-5-yl)quinolin-3-yl)-1H-pyrazol-1-yl)-N-methylethan-1-amine], for which the Ki in test [1] was 0.0398 to 0.316 nM. In test [2], the IC50 was 25.1 to 158 nM.

Turning to `CNCCn1cc(-c2cnc3ccc(-c4c(-c5cc(Cl)ccc5F)[nH]c5cccnc45)cc3c2)cn1` [Compound 21-1, 2-(4-(6-(2-(5-chloro-2-fluorophenyl)-1H-pyrrolo[3,2-b]pyridin-3-yl)quinolin-3-yl)-1H-pyrazol-1-yl)-N-methylethan-1-amine], the Ki in test [1] was 0.398 to 3.16 nM. Moreover, the IC50 in test [2] is 200 to 1260 nM.

Turning to `CNCCn1cc(-c2cnc3ccc(-c4nc[nH]c4-c4cc(Cl)c(F)cc4F)cc3c2)cn1` [Compound 22-2, 2-(4-(6-(5-(5-chloro-2,4-difluorophenyl)-1H-imidazol-4-yl)quinolin-3-yl)-1H-pyrazol-1-yl)-N-methylethan-1-amine], the Ki in test [1] was 0.0398 to 0.316 nM. The IC50 in test [2] was 25.1 to 158 nM.

Consider `NCCn1cc(-c2cnc3ccc(-c4nc[nH]c4-c4cc(Cl)c(F)cc4F)cc3c2)cn1` [Compound 22-3, 2-[4-[6-[5-(5-chloro-2,4-difluoro-phenyl)-1H-imidazol-4-yl]-3-quinolyl]pyrazol-1-yl]ethanamine], for which, in test [1], the Ki was 0.0398 to 0.316 nM. Besides, the IC50 in test [2] is 25.1 to 158 nM.

In the case of `CC(C)N1CCN(CCNc2cnc3ccc(-c4nc[nH]c4-c4cc(Cl)c(F)cc4F)cc3c2)CC1` [Compound 22-4, 6-(5-(5-chloro-2,4-difluorophenyl)-1H-imidazol-4-yl)-N-(2-(4-isopropylpiperazin-1-yl)ethyl)quinolin-3-amine], in test [1], the Ki was 0.0398 to 0.316 nM. Moreover, in test [2], the IC50 is 25.1 to 158 nM.

On to `Fc1cc(F)c(-c2[nH]cnc2-c2ccc3ncc(NCCN4CCNCC4)cc3c2)cc1Cl` [Compound 22-5, 6-[5-(5-chloro-2,4-difluoro-phenyl)-1H-imidazol-4-yl]-N-(2-piperazin-1-ylethyl)quinolin-3-amine], for which, in test [1], the Ki was 0.0398 to 0.316 nM. In addition, the IC50 in test [2] is 25.1 to 158 nM.

With `O=C(O)[C@H]1CN(c2cnc3ccc(-c4nc[nH]c4-c4cc(Cl)c(F)cc4F)cc3c2)CCN1` [Compound 22-6, (2R)-4-[6-[5-(5-chloro-2,4-difluoro-phenyl)-1H-imidazol-4-yl]-3-quinolyl]piperazine-2-carboxylic acid], in test [1], the Ki is 3.98 to 31.6 nM. For the same molecule, the IC50 in test [2] was 1580 to 10000 nM.

`NCCn1cc(-c2cnc3ccc(-c4nc[nH]c4-c4ccc(F)c(F)c4)cc3c2)cn1` [Compound 23-1, 2-(4-(6-(5-(3,4-difluorophenyl)-1H-imidazol-4-yl)quinolin-3-yl)-1H-pyrazol-1-yl)ethan-1-amine]: the Ki in test [1] was 0.0398 to 0.316 nM. Besides, the IC50 in test [2] was 25.1 to 158 nM.

In the case of `CNCCn1cc(-c2cnc3ccc(-c4nc[nH]c4-c4ccc(F)c(F)c4)cc3c2)cn1` [Compound 23-2, 2-[4-[6-[5-(3,4-difluorophenyl)-1H-imidazol-4-yl]-3-quinolyl]pyrazol-1-yl]-N-methyl-ethanamine], in test [1], the Ki was 0.0398 to 0.316 nM. In addition, the IC50 in test [2] is 25.1 to 158 nM.

For `N[C@@H]1CCCC[C@H]1n1cc(-c2cnc3ccc(-c4nc[nH]c4-c4ccc(F)c(F)c4)cc3c2)cn1` [Compound 23-3, (1R,2R)-2-(4-(6-(5-(3,4-difluorophenyl)-1H-imidazol-4-yl)quinolin-3-yl)-1H-pyrazol-1-yl)cyclohexan-1-amine], the Ki in test [1] is 0.0398 to 0.316 nM. Also, the IC50 in test [2] was 25.1 to 158 nM.

Turning to `CC(C)N1CCN(CCNc2cnc3ccc(-c4nc[nH]c4-c4ccc(F)c(F)c4)cc3c2)CC1` [Compound 23-4, 6-(5-(3,4-difluorophenyl)-1H-imidazol-4-yl)-N-(2-(4-isopropylpiperazin-1-yl)ethyl)quinolin-3-amine], the Ki in test [1] is 3.98 to 31.6 nM. Further, the IC50 in test [2] was 25.1 to 158 nM.

Turning to `Fc1ccc(-c2[nH]cnc2-c2ccc3ncc(NCCN4CCNCC4)cc3c2)cc1F` [Compound 23-5, 6-[5-(3,4-difluorophenyl)-1H-imidazol-4-yl]-N-(2-piperazin-1-ylethyl)quinolin-3-amine], the Ki in test [1] is 3.98 to 31.6 nM. Moreover, the IC50 in test [2] is 200 to 1260 nM.

In the case of `CNCCn1cc(-c2cnc3ccc(-c4nc[nH]c4-c4cccc(Cl)c4)cc3c2)cn1` [Compound 24-1, 2-(4-(6-(5-(3-chlorophenyl)-1H-imidazol-4-yl)quinolin-3-yl)-1H-pyrazol-1-yl)-N-methylethan-1-amine], in test [1], the Ki was at most 0.0316 nM. Further, the IC50 in test [2] was at most 20 nM.

In the case of `CC(C)N1CCN(CCNc2cnc3ccc(-c4nc[nH]c4-c4cccc(Cl)c4)cc3c2)CC1` [Compound 24-2, 6-(5-(3-chlorophenyl)-1H-imidazol-4-yl)-N-(2-(4-isopropylpiperazin-1-yl)ethyl)quinolin-3-amine], the Ki in test [1] is 0.398 to 3.16 nM. Also, the IC50 in test [2] is 25.1 to 158 nM.

As for `C[C@@H]1CN(CCNc2cnc3ccc(-c4nc[nH]c4-c4cccc(Cl)c4)cc3c2)C[C@H](C)N1` [Compound 24-3, 6-[5-(3-chlorophenyl)-1H-imidazol-4-yl]-N-[2-[(3R,5S)-3,5-dimethylpiperazin-1-yl]ethyl]quinolin-3-amine], the Ki in test [1] is 0.398 to 3.16 nM. Moreover, the IC50 in test [2] was 25.1 to 158 nM.

For the molecule `Clc1cccc(-c2[nH]cnc2-c2ccc3ncc(NCCN4CCNCC4)cc3c2)c1` [Compound 24-4, 6-[5-(3-chlorophenyl)-1H-imidazol-4-yl]-N-(2-piperazin-1-ylethyl)quinolin-3-amine], in test [1], the Ki is 0.398 to 3.16 nM. Also, the IC50 in test [2] is 25.1 to 158 nM.

`CNC1CCN(c2cnc3ccc(-c4c(-c5cc(Cl)ccc5F)[nH]c5cccnc45)nc3c2)CC1` [Compound 25-1, 1-[6-[2-(5-chloro-2-fluoro-phenyl)-1H-pyrrolo[3,2-b]pyridin-3-yl]-1,5-naphthyridin-3-yl]-N-methyl-piperidin-4-amine]: the Ki in test [1] is 3.98 to 31.6 nM. Further, the IC50 in test [2] was 200 to 1260 nM.
